# From patent US8324177B2, “Triterpene compositions and methods for use thereof” (Research Development Foundation, priority 1998, dated 2012)
# Test system: poly (ADP-ribose) polymerase (PARP) cleavage in Jurkat cells
# Test: Immunoblot analysis of PARP degradation
# Assay type: cell-based, human
# Conditions: 100 μM, 1 h pretreatment
# Description: Apoptosis induced by F035 & D1 was examined by proteolytic cleavage of poly (ADP-ribose) polymerase (PARP). Jurkat cells (2×10^6/ml) were treated with F035 (2 μg/ml) and D1 (2 μg/ml) for different lengths of time. Cell lysates were prepared in buffer containing 20 mM HEPES, 250 mM NaCl, 2 mM EDTA, 0.1% NP-40, 2 μg/ml leupeptin, 2 μg/ml aprotinin, 0.5 μg/ml benzamidine, 1 mM DTT and 1 mM PMSF. Cellular proteins (60 μg/ml) were separated on a 7.5% SDS polyacrylamide gel and electrotransferred onto a nitrocellulose membrane. The membrane was probed first with monclonal anti-PARP antibody (PharMingen) and then with anti-mouse antibody conjugated to horse radish peroxidase (HRPO). Protein bands were detected by chemiluminescense (ECL, Amersham). The extent of cleavage of the 116-kDa PARP into 85-kDa and 41-kDa peptide products was used as a measure of apoptosis (Tewari et al., 1995).
substance,measurement,value
z-vad fmk,Effect on F035 induced cleavage of PARP (in words),completely reversed
